Ends that are not written are not given here. Peptide text beside a SMILES is read from it.
Assays:
CRF2R = target: T1, CRF2R (Homo sapiens, UniProt Q13324); assay: CRF2R agonist activity (EC50 and Emax), called comparative CRF binding; assay type: cell-based; settings: CRF2R; for EC50: read-out: CRF2R EC50
T1 sequence (Q13324 1-411): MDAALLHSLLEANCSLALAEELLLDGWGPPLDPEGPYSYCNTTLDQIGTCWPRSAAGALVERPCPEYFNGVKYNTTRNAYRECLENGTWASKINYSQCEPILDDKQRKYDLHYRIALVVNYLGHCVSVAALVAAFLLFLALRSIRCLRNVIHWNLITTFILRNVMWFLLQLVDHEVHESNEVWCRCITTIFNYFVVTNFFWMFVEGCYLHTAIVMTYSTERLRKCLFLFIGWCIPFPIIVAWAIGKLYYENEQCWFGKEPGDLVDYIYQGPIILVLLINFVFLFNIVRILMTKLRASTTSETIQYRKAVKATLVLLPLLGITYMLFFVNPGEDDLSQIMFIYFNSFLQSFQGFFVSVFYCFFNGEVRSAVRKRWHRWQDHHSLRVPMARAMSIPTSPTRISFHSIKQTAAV
Excerpt: (§1) The pharmacological activity and selectivity of the peptides of present invention can be determined using published test procedures. See, e.g, U.S. patent application Ser. No. 09/799,978. Because CRF2R and CRF1R are homologous proteins, it is expected that a certain proportion of agonists for CRF2R will also function as agonists of CRF1R. As discussed above, activation of CRF1R induces activation of the HPA axis since increased corticosteroid production leads to skeletal muscle atrophy. In most cases in which an increase in muscle mass or function is desired, it is not desirable to activate the HPA axis.
(§2) Because it is desirable to discriminate binding between CRF2R, as compared with CRF1R, the assays described above may be conducted using a cell, or membrane from a cell, which expresses only CRF2R or the assays can be conducted with a recombinant source of CRF2R. Cells expressing both forms of CRFR may be modified using homologous recombination to inactivate or otherwise disable the CRF1R gene. Alternatively, if the source of CRFR contains more than one CRFR type, the background signal produced by the receptor which is not of interest must be subtracted from the signal obtained in the assay. […] Known antagonists of CRFRs include, but are not limited to, antalarmin (CRF1R selective), antisauvagine-30 (CRF2R selective) and astressin (nonselective for CRF1R/CRF2R).
(§3) Cell-based assays include the steps of contacting cells which express CRF1R or CRF2R with a peptide of the present invention or control and measuring activation of the CRFR by measuring the expression or activity of components of the CRFR signal transduction pathways.
(§4) For example, after contact with a peptide of the present invention, lysates of the cells can be prepared and assayed for induction of cAMP. cAMP is induced in response to Gαs activation. Because Gαs is activated by receptors other than CRFR and because a test peptide may be exerting its effect through CRFRs or by another mechanism, two control comparisons are relevant for determining whether the peptide increases levels of cAMP via activation of a CRFR. One control compares the cAMP level of cells contacted with the peptide and the cAMP level of cells contacted with a control compound (i.e., the vehicle in which the peptide is dissolved).
(§5) In one example, cAMP induction is measured with the use of DNA constructs containing the cAMP responsive element linked to any of a variety of reporter genes can be introduced into cells expressing CRFRs. Such reporter genes include, but are not limited to, chloramphenicol acetyltransferase (CAT), luciferase, glucuronide synthetase, growth hormone, fluorescent proteins (e.g., Green Fluorescent Protein), or alkaline phosphatase. Following exposure of the cells to the peptide, the level of reporter gene expression can be quantitated to determine the peptide's ability to increase cAMP levels and thus determine the peptide's ability to activate the CRFR.
(§6) In addition to using cells expressing full length CRFRs, cells can be engineered which express CRFRs containing the ligand binding domain of the receptor coupled to, or physically modified to contain, reporter elements or to interact with signaling proteins. For example, a wild type CRFR or CRFR fragment can be fused to a G-protein resulting in activation of the fused G-protein upon agonist binding to the CRFR portion of the fusion protein. […] In addition, alternative pathways for induction of the CRE reporter could be eliminated to reduce basal levels.

CRF1R = target: T2, CRF1R (Homo sapiens, UniProt P34998); assay: CRF1R agonist activity (EC50 and Emax), called comparative CRF binding; assay type: cell-based; settings: CRF1R; for EC50: read-out: CRF1R EC50
T2 sequence (P34998 24-415): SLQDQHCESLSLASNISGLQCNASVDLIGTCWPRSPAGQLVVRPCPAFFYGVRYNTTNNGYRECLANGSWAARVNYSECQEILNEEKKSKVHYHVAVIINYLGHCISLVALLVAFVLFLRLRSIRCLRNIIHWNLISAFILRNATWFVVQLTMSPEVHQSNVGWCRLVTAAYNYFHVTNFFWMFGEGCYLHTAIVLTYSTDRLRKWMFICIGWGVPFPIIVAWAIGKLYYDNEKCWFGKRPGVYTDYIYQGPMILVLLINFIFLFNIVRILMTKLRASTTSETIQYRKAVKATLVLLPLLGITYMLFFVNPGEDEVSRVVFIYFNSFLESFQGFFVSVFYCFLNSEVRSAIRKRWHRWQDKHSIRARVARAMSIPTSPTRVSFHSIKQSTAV
Excerpt: as §1, §2, §3, §4, §5, §6

CC[C@H](C)[C@H](N)C(=O)N[C@H](C(=O)N[C@@H](CC(C)C)C(=O)N[C@@H](CO)C(=O)N[C@@H](CC(C)C)C(=O)N[C@@H](CC(=O)O)C(=O)N[C@H](C(=O)N1CCC[C@H]1C(=O)NCC(=O)N1CCC[C@H]1C(=O)N[C@@H](CC(C)C)C(=O)N[C@@H](CC(C)C)C(=O)N[C@@H](CCC(N)=O)C(=O)N[C@H](C(=O)N[C@@H](CC(C)C)C(=O)N[C@@H](CC(C)C)C(=O)N[C@@H](CCC(=O)O)C(=O)N[C@@H](CCC(N)=O)C(=O)N[C@H](C(=O)N[C@@H](CCCCN)C(=O)N[C@@H](CCC(N)=O)C(=O)N[C@@H](CCC(=O)O)C(=O)N[C@@H](C)C(=O)N[C@@H](C)C(=O)N[C@@H](CCCNC(=N)N)C(=O)N[C@@H](CCC(=O)O)C(=O)N[C@@H](CCC(N)=O)C(=O)N[C@@H](C)C(=O)N[C@H](C(=O)N[C@H](C(=O)N[C@@H](CC(N)=O)C(=O)N[C@@H](C)C(=O)N[C@@H](CCCNC(=N)N)C(=O)N[C@H](C(=O)N[C@@H](CC(C)C)C(=O)N[C@@H](C)C(=O)N[C@@H](CCCNC(=N)N)C(=O)N[C@H](C(N)=O)C(C)C)[C@@H](C)CC)[C@@H](C)O)[C@@H](C)O)[C@@H](C)O)[C@@H](C)CC)C(C)C)C(C)C [compound 5] (H-IVLSLDVPGPLLQILLEQTKQEAAREQATTNARILARV-NH2)
EC50 (CRF2R): ≥ 100 nM
EC50 (CRF1R): ≥ 100 nM

CC[C@H](C)[C@H](N)C(=O)N[C@H](C(=O)N[C@@H](CC(C)C)C(=O)N[C@@H](CO)C(=O)N[C@@H](CC(C)C)C(=O)N[C@@H](CC(=O)O)C(=O)N[C@H](C(=O)N1CCC[C@H]1C(=O)N[C@H](C(=O)NCC(=O)N[C@@H](CC(C)C)C(=O)N[C@@H](CC(C)C)C(=O)N[C@@H](CCC(N)=O)C(=O)N[C@H](C(=O)N[C@@H](CC(C)C)C(=O)N[C@@H](CC(C)C)C(=O)N[C@@H](CCC(=O)O)C(=O)N[C@@H](CCC(N)=O)C(=O)N[C@@H](C)C(=O)N[C@@H](CCCNC(=N)N)C(=O)N[C@@H](C)C(=O)N[C@@H](C)C(=O)N[C@@H](C)C(=O)N[C@@H](CCCNC(=N)N)C(=O)N[C@@H](CCC(=O)O)C(=O)N[C@@H](CCC(N)=O)C(=O)N[C@@H](C)C(=O)N[C@H](C(=O)N[C@H](C(=O)N[C@@H](CC(N)=O)C(=O)N[C@@H](C)C(=O)N[C@@H](CCCNC(=N)N)C(=O)N[C@H](C(=O)N[C@@H](CC(C)C)C(=O)N[C@@H](C)C(=O)N[C@@H](CCCNC(=N)N)C(=O)N[C@H](C(N)=O)C(C)C)[C@@H](C)CC)[C@@H](C)O)[C@@H](C)O)[C@@H](C)CC)[C@@H](C)CC)C(C)C)C(C)C [compound 141] (H-IVLSLDVPIGLLQILLEQARAAAREQATTNARILARV-NH2)
EC50 (CRF2R): > 100 nM
EC50 (CRF1R): > 100 nM

NDDPPISIDLPYYLLRNMIEMARIENEREQAGLNAKYLAEV-NH2 [compound 267]
EC50 (CRF2R): ≥ 100 nM
EC50 (CRF1R): ≥ 1000 nM

SQEPPISLDLPTHLLREVLEMTKADQLAQQAHSNRKLLDIA-NH2 [compound 99]
EC50 (CRF2R): ≥ 100 nM
EC50 (CRF1R): ≥ 100 nM

SEEPPISLDVPIGLLQEVLEMARAEQLAQQAHSNRKLMEII-NH2 [compound 162]
EC50 (CRF2R): > 100 nM
EC50 (CRF1R): > 100 nM

SQEPPISLDLPLHLLREVLEMTKADQLAQQAHSNRKLLDIA-NH2 [compound 102]
EC50 (CRF2R): ≥ 100 nM
EC50 (CRF1R): ≥ 100 nM

SQEPPISLDLTIGLLREVLEMTKADQLAQQAHSNRKLLDIA-NH2 [compound 86]
EC50 (CRF2R): ≥ 100 nM
EC50 (CRF1R): ≥ 100 nM

SQEIVLSLDVPIGLLREVLEMTKADQLAQQAHSNRKLLDIA-NH2 [compound 7]
CRF2R (Emax %) (CRF2R; Emax): (19) %
CRF1R (Emax %) (CRF1R; Emax): (4) %

SQEPPISLDLPFYLLREVLEMTKADQLAQQAHSNRKLLDIA-NH2 [compound 96]
EC50 (CRF2R): ≥ 100 nM
EC50 (CRF1R): ≥ 100 nM

CC[C@H](C)[C@H](N)C(=O)N[C@H](C(=O)N[C@@H](CC(C)C)C(=O)N[C@@H](CO)C(=O)N[C@@H](CC(C)C)C(=O)N[C@@H](CC(=O)O)C(=O)N[C@H](C(=O)N1CCC[C@H]1C(=O)N[C@H](C(=O)NCC(=O)N[C@@H](CC(C)C)C(=O)N[C@@H](CC(C)C)C(=O)N[C@@H](CCC(N)=O)C(=O)N[C@H](C(=O)N[C@@H](CC(C)C)C(=O)N[C@@H](CC(C)C)C(=O)N[C@@H](CCC(=O)O)C(=O)N[C@@H](CCCCN)C(=O)N[C@@H](C)C(=O)N[C@@H](C)C(=O)N[C@@H](C)C(=O)N[C@@H](CCC(=O)O)C(=O)N[C@@H](C)C(=O)N[C@@H](CCC(=O)O)C(=O)N[C@@H](C)C(=O)N[C@@H](C)C(=O)N[C@@H](C)C(=O)N[C@@H](CCCCN)C(=O)N[C@@H](C)C(=O)N[C@@H](C)C(=O)N[C@@H](CCC(N)=O)C(=O)N[C@@H](CCC(=O)O)C(=O)N[C@@H](CCC(N)=O)C(=O)N[C@H](C(=O)N[C@@H](CC(C)C)C(=O)N[C@@H](C)C(=O)N[C@@H](Cc1c[nH]cn1)C(=O)N[C@H](C(N)=O)C(C)C)[C@@H](C)CC)[C@@H](C)CC)[C@@H](C)CC)C(C)C)C(C)C [compound 366] (H-IVLSLDVPIGLLQILLEKAAAEAEAAAKAAQEQILAHV-NH2)
EC50 (CRF2R): ≥ 100 nM
EC50 (CRF1R): ≥ 1000 nM

CC[C@H](C)[C@H](N)C(=O)N[C@H](C(=O)N[C@@H](CC(C)C)C(=O)N[C@@H](CO)C(=O)N[C@@H](CC(C)C)C(=O)N[C@@H](CC(=O)O)C(=O)N[C@H](C(=O)N1CCC[C@H]1C(=O)N[C@H](C(=O)NCC(=O)N[C@@H](CC(C)C)C(=O)N[C@@H](CC(C)C)C(=O)N[C@@H](CCC(N)=O)C(=O)N[C@H](C(=O)N[C@@H](CC(C)C)C(=O)N[C@@H](CC(C)C)C(=O)N[C@@H](CCC(=O)O)C(=O)N[C@@H](CCC(N)=O)C(=O)N[C@@H](C)C(=O)N[C@@H](C)C(=O)N[C@@H](CCCNC(=N)N)C(=O)N[C@@H](C)C(=O)N[C@@H](C)C(=O)N[C@@H](CCCNC(=N)N)C(=O)N[C@@H](CCC(=O)O)C(=O)N[C@@H](CCC(N)=O)C(=O)N[C@@H](C)C(=O)N[C@H](C(=O)N[C@H](C(=O)N[C@@H](CC(N)=O)C(=O)N[C@@H](C)C(=O)N[C@@H](CCCNC(=N)N)C(=O)N[C@H](C(=O)N[C@@H](CC(C)C)C(=O)N[C@@H](C)C(=O)N[C@@H](CCCNC(=N)N)C(=O)N[C@H](C(N)=O)C(C)C)[C@@H](C)CC)[C@@H](C)O)[C@@H](C)O)[C@@H](C)CC)[C@@H](C)CC)C(C)C)C(C)C [compound 135] (H-IVLSLDVPIGLLQILLEQAARAAREQATTNARILARV-NH2)
EC50 (CRF2R): > 100 nM
EC50 (CRF1R): > 100 nM

SQEPPISLDLPIGLLREVLEMTKADQLAQQAHSNRKLLDIA-NH2 [compound 93]
EC50 (CRF2R): ≥ 100 nM
EC50 (CRF1R): ≥ 100 nM

From patent publication US7632933B2, “Corticotropin releasing factor 2 receptor agonists” (priority 2002, dated 2009)
